Assay [1] has as its target T1, Vasoactive intestinal polypeptide receptor 1 (Homo sapiens, UniProt P32241). Also: in other assays of this panel Not Active means under 50% inhibition at 10 µM.
T1 sequence (P32241 whole entry): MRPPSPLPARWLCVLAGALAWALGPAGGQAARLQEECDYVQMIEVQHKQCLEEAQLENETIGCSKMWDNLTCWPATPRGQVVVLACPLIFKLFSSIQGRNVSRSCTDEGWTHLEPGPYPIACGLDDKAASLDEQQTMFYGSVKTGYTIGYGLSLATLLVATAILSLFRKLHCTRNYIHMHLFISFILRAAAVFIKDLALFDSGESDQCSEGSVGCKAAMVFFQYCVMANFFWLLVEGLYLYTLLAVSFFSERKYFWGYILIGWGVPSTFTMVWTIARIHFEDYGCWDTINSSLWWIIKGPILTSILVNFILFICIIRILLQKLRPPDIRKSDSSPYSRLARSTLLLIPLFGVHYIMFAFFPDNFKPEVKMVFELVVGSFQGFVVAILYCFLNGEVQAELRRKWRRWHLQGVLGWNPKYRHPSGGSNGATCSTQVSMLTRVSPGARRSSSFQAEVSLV
Format: cell membranes, Membrane. Conditions: ht-29.

Assay [2] in a line: DRUGMATRIX: GABAA, Chloride Channel, TBOB radioligand binding (ligand: [3H] TBOB). The note with it: Not Active = under 50% inhibition at 10 µM. Format: cell membranes, Rattus norvegicus, Wistar, Cerebral cortex, Membrane.
In assay [3] the target is Mitogen-activated protein kinase 1 (Homo sapiens, UniProt P28482). The assay is described as follows: DRUGMATRIX: Protein Serine/Threonine Kinase, ERK2 enzyme inhibition (substrate: Myelin Basic Protein). Also noted: species or system Escherichia coli. The note with it: Not Active = under 50% inhibition at 10 µM.
Chain of Mitogen-activated protein kinase 1 (P28482 whole entry): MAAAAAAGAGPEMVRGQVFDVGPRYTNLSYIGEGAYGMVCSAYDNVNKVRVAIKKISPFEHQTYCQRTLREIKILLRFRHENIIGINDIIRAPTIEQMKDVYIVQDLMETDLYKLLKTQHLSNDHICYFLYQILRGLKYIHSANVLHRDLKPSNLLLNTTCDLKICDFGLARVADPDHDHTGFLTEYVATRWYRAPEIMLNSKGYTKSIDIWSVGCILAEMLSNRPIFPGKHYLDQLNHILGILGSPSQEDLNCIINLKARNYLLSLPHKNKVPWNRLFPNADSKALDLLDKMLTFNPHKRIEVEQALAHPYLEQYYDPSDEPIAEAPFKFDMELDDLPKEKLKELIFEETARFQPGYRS
Assay [4] in a line: DRUGMATRIX: beta-Lactamase enzyme inhibition (substrate: Nitrocefin). The arrangement: species or system Bacillus cereus. The note with it: Not Active = under 50% inhibition at 10 µM.
A further assay concerns the target T2, Adenosine receptor A3 (Homo sapiens, UniProt P0DMS8).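 Also: radioligand binding assay with AB-MECA serving as the labeled ligand; in other assays of this panel Not Active means under 50% inhibition at 10 µM.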
T2 sequence (P0DMS8 whole entry): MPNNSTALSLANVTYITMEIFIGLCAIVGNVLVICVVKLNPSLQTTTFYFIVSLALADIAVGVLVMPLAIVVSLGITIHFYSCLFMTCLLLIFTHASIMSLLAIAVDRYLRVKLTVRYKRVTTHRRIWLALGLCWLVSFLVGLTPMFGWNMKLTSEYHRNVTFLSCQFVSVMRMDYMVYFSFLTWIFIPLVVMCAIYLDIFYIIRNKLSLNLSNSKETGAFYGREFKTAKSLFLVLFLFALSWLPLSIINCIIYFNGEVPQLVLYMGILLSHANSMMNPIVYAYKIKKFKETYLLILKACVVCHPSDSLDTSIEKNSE
The format is cell membranes, CHO-K1, Membrane.

The target of assay [5] is Kappa-type opioid receptor (Homo sapiens, UniProt P41145). In words: DRUGMATRIX: Opiate kappa (OP2, KOP) radioligand binding (ligand: [3H] Diprenorphine). Format: cell membranes, HEK293, Membrane. Conditions: hek293; Not Active = under 50% inhibition at 10 µM.
Chain of Kappa-type opioid receptor (P41145 whole entry): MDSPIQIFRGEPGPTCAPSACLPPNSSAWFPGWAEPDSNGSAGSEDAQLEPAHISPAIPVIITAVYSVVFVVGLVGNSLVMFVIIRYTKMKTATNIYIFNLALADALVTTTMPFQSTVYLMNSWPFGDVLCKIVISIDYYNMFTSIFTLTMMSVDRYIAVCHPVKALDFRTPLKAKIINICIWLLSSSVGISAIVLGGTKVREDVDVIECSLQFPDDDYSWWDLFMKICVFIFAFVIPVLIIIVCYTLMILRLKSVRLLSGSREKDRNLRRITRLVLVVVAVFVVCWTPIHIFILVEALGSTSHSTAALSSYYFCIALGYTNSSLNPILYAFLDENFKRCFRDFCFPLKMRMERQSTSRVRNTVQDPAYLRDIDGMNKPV
Another assay deals with Vasopressin V1a receptor (Homo sapiens, UniProt P37288). Format: cell membranes, Membrane. Conditions: hek293.
Chain of Vasopressin V1a receptor (P37288 whole entry): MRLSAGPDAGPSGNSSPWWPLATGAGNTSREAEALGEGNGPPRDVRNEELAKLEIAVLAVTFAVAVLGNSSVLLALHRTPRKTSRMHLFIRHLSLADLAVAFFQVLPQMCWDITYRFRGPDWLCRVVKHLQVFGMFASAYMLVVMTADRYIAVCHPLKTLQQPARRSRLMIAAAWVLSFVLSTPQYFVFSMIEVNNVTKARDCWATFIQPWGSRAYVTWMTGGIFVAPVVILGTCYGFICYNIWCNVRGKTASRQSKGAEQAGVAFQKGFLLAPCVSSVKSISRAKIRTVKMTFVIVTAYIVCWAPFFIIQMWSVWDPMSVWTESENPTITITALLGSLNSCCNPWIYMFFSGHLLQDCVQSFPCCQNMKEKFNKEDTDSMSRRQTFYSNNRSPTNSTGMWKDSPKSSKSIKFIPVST

The record followed here is ChEMBL document CHEMBL1909046, “DrugMatrix in vitro pharmacology data”.

Usually IC50 stands for the point on the concentration scale where inhibition reaches its midpoint. As usually defined, the Ki is a measure of affinity in units of concentration, obtained from inhibition or displacement. For `COc1ccc(C2C(=O)c3ccccc3C2=O)cc1` [ANISINDIONE], the 50% inhibitory concentration (IC50) result (in assay [1]; in assay [2]; in assay [3]; in assay [4]; against Adenosine receptor A3 (cho-k1); in assay [5]) was “Not Active” each time. Besides, the IC50 entry against Vasopressin V1a receptor was “Not Active”. The Ki result in assay [2] and in assay [4] was “Not Active” in each case.
As to `CC[C@H](C)[C@H]1O[C@]2(C=C[C@@H]1C)C[C@@H]1C[C@@H](C/C=C(\C)[C@@H](O[C@H]3C[C@H](OC)[C@@H](O[C@H]4C[C@H](OC)[C@@H](O)[C@H](C)O4)[C@H](C)O3)[C@@H](C)/C=C/C=C3\CO[C@@H]4[C@H](O)C(C)=C[C@@H](C(=O)O1)[C@]34O)O2.CO[C@H]1C[C@H](O[C@H]2[C@H](C)O[C@@H](O[C@@H]3/C(C)=C/C[C@@H]4C[C@@H](C[C@]5(C=C[C@H](C)[C@@H](C(C)C)O5)O4)OC(=O)[C@@H]4C=C(C)[C@@H](O)[C@H]5OC/C(=C\C=C\[C@@H]3C)[C@]54O)C[C@@H]2OC)O[C@@H](C)[C@@H]1O` [ABAMECTIN], the concentration for half-maximal inhibition (IC50) result is “Not Active” in assay [1]; “Not Active” in assay [2]; “Not Active” in assay [3]; “Not Active” in assay [4]; 870 nM on Adenosine receptor A3 (read-out: IC50); “Not Active” in assay [5]. For the same compound, the IC50 result against Vasopressin V1a receptor is “Not Active”. Besides, the inhibitory constant (Ki) entry was “Not Active” in assay [2], “Not Active” in assay [4] and 492 nM at Adenosine receptor A3 (read-out: Ki).
Turning to `CN/C(=N\CCSCc1nc[nH]c1C)NC#N` [CIMETIDINE], the IC50 entry (in assay [1]; in assay [2]; in assay [3]; in assay [4]; at Adenosine receptor A3 (cho-k1); in assay [5]) was “Not Active” each time. Also, the IC50 entry against Vasopressin V1a receptor is listed as “Not Active”. Also, the inhibitory constant (Ki) entry in assay [2] and in assay [4] was “Not Active” throughout.
Consider NYSTATIN, for which the IC50 entry (in assay [1]; in assay [2]; in assay [3]; in assay [4]; at Adenosine receptor A3 (cho-k1); against Vasopressin V1a receptor) was “Not Active” each time. For the same compound, the Ki entry (in assay [1]; in assay [2]; in assay [3]; in assay [4]; on Adenosine receptor A3 (cho-k1); on Vasopressin V1a receptor) was “Not Active” throughout.
For `CCCNCC(O)COc1ccccc1C(=O)CCc1ccccc1` (configuration not stated) [PROPAFENONE], the IC50 result (in assay [1]; in assay [2]; in assay [3]; in assay [4]; at Adenosine receptor A3 (cho-k1); in assay [5]) was “Not Active” each time. The IC50 result against Vasopressin V1a receptor was “Not Active”. Further, the Ki entry in assay [2] and in assay [4] was “Not Active” throughout.
Take `COC(=O)Nc1nc2ccc([S+]([O-])c3ccccc3)cc2[nH]1` (configuration not stated) [OXFENDAZOLE]: the IC50 entry (in assay [1]; in assay [2]; in assay [3]; in assay [4]; at Adenosine receptor A3 (cho-k1); in assay [5]) was “Not Active” throughout. For the same compound, the 50% inhibitory concentration (IC50) result on Vasopressin V1a receptor is recorded as “Not Active”. For the same compound, the inhibition constant Ki entry in assay [2] and in assay [4] was “Not Active” throughout.
Consider `CCC1(C)CC(=O)NC1=O` (configuration not stated) [ETHOSUXIMIDE], for which the 50% inhibitory concentration (IC50) entry (in assay [1]; in assay [2]; in assay [3]; in assay [4]; against Adenosine receptor A3 (cho-k1); in assay [5]) was “Not Active” in each case. Moreover, the IC50 entry on Vasopressin V1a receptor is “Not Active”. The Ki result in assay [2] and in assay [4] was “Not Active” in each case.
As to `Brc1c(NC2=NCCN2)ccc2nccnc12` [BRIMONIDINE], the IC50 result (in assay [1]; in assay [2]; in assay [3]; in assay [4]; against Adenosine receptor A3 (cho-k1); in assay [5]) was “Not Active” throughout. Also, the IC50 entry against Vasopressin V1a receptor is “Not Active”. Moreover, the inhibition constant Ki entry in assay [2] and in assay [4] was “Not Active” each time.
Regarding GRAMICIDIN, the IC50 result (in assay [1]; in assay [2]; in assay [3]; in assay [4]; against Adenosine receptor A3 (cho-k1); against Vasopressin V1a receptor) was “Not Active” throughout. In addition, the Ki entry (in assay [1]; in assay [2]; in assay [3]; in assay [4]; on Adenosine receptor A3 (cho-k1); on Vasopressin V1a receptor) was “Not Active” throughout.
As for `O=C/C=C/c1ccccc1`, the IC50 result (in assay [1]; in assay [2]; in assay [3]; in assay [4]; on Adenosine receptor A3 (cho-k1); against Vasopressin V1a receptor) was “Not Active” in each case. Also, the Ki entry in assay [2] and in assay [4] was “Not Active” throughout.
`C[C@@H](CO)NC(=O)[C@@H]1C=C2c3cccc4[nH]cc(c34)C[C@H]2N(C)C1` [ERGONOVINE]: the IC50 result (in assay [1]; in assay [2]; in assay [3]; in assay [4]; on Adenosine receptor A3 (cho-k1); against Vasopressin V1a receptor) was “Not Active” in each case. Moreover, the Ki result in assay [2] and in assay [4] was “Not Active” each time.
GENTAMICIN: the IC50 result (in assay [1]; in assay [2]; in assay [3]; in assay [4]; against Adenosine receptor A3 (cho-k1); against Vasopressin V1a receptor) was “Not Active” in each case. Besides, the Ki result (in assay [1]; in assay [2]; in assay [3]; in assay [4]; at Adenosine receptor A3 (cho-k1); on Vasopressin V1a receptor) was “Not Active” in each case.
Regarding `C[C@@H]1O[C@@H](O[C@@H]2C=C3CC[C@@H]4[C@H](CC[C@]5(C)[C@@H](c6ccc(=O)oc6)CC[C@]45O)[C@@]3(C)CC2)[C@H](O)[C@H](O)[C@H]1O` [PROSCILLARIDIN], the 50% inhibitory concentration (IC50) result (in assay [1]; in assay [2]; in assay [3]; in assay [4]; on Adenosine receptor A3 (cho-k1); against Vasopressin V1a receptor) was “Not Active” each time. The inhibition constant Ki result in assay [2] and in assay [4] was “Not Active” throughout.
For the compound `C[n+]1ccc(-c2cc[n+](C)cc2)cc1.[Cl-].[Cl-]` [PARAQUAT DICHLORIDE], the 50% inhibitory concentration (IC50) result (in assay [1]; in assay [2]; in assay [3]; in assay [4]; at Adenosine receptor A3 (cho-k1); on Vasopressin V1a receptor) was “Not Active” each time. The Ki entry in assay [2] and in assay [4] was “Not Active” throughout.
On to GADOPENTETATE DIMEGLUMINE, for which the half-inhibitory concentration (IC50) result (in assay [1]; in assay [2]; in assay [3]; in assay [4]; at Adenosine receptor A3 (cho-k1); against Vasopressin V1a receptor) was “Not Active” throughout. In addition, the Ki entry (in assay [1]; in assay [2]; in assay [3]; in assay [4]; on Adenosine receptor A3 (cho-k1); on Vasopressin V1a receptor) was “Not Active” throughout.
Consider `CC(C)c1cccc(C(C)C)c1O` [PROPOFOL], for which the IC50 entry (in assay [1]; in assay [2]; in assay [3]; in assay [4]; on Adenosine receptor A3 (cho-k1); on Vasopressin V1a receptor) was “Not Active” each time. Also, the Ki entry in assay [2] and in assay [4] was “Not Active” in each case.
In the case of AURANOFIN, the IC50 entry in assay [1] was “Not Active”; in assay [2], “Not Active”; in assay [3] it was “Not Active”; in assay [4], “Not Active”; at Adenosine receptor A3 (cho-k1, read-out: IC50) it was 1690 nM; against Vasopressin V1a receptor, “Not Active”. Besides, the inhibitory constant (Ki) entry in assay [1] is “Not Active”; in assay [2] it was “Not Active”; in assay [3] it was “Not Active”; in assay [4] it was “Not Active”; on Adenosine receptor A3 (cho-k1, read-out: Ki), 954 nM; at Vasopressin V1a receptor it was “Not Active”.
In the case of `Cc1nnc2n1-c1ccc(Cl)cc1C(c1ccccc1)=NC2` [ALPRAZOLAM], the concentration for half-maximal inhibition (IC50) result (in assay [1]; in assay [2]; in assay [3]; in assay [4]; at Adenosine receptor A3 (cho-k1); against Vasopressin V1a receptor) was “Not Active” each time. Also, the inhibitory constant (Ki) result in assay [2] and in assay [4] was “Not Active” each time.
